Read-outs that look alike come from different tables or passages of the source.
Key:
[1] = target: T1, human recombinant ETA receptors (Homo sapiens, UniProt P25101); assay: Inhibition of endothelin binding to membranes from CHO cells carrying human ET receptors (ETA)
T1 construct: expressed in transfected cells; host or cells: CHO cells (microsomal membranes)
T1 sequence (P25101 21-427): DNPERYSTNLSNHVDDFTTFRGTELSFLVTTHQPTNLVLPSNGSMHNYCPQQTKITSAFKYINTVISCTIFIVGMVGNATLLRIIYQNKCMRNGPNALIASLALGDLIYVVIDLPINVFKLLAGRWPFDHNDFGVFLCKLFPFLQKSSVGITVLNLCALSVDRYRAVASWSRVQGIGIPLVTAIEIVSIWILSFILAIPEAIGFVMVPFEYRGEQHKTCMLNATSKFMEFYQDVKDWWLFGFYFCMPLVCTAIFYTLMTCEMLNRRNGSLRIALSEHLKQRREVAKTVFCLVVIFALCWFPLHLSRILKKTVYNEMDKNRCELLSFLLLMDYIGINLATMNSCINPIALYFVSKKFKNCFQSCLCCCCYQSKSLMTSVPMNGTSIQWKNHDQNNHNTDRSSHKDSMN

[2] = target: T2, human recombinant ETB receptors (Homo sapiens, UniProt P24530); assay: Inhibition of endothelin binding to membranes from CHO cells carrying human ET receptors (ETB)
T2 construct: expressed in transfected cells; host or cells: CHO cells (microsomal membranes)
T2 sequence (P24530 27-442): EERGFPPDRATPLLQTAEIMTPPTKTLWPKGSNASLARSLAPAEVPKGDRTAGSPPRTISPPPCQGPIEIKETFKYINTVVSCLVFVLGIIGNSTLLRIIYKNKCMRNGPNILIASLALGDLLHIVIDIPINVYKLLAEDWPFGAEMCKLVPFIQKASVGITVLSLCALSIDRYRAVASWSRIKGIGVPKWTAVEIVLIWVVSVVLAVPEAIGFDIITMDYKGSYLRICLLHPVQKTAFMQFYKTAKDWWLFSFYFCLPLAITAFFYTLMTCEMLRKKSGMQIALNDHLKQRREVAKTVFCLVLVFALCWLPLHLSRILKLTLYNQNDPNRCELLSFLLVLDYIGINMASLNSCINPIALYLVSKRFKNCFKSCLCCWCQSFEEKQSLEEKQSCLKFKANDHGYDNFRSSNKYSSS
Procedure: 1) Inhibition of Endothelin Binding to Membranes from CHO Cells Carrying Human ET Receptors:
For competition binding studies, membranes of CHO cells expressing human recombinant ETA or ETB receptors were used. Microsomal membranes from recombinant CHO cells were prepared and the binding assay made as previously described (Breu V., et al, FEBS Lett 1993; 334:210).
The assay was performed in 200 uL 50 mM Tris/HCl buffer, pH 7.4, including 25 mM MnCl2, 1 mM EDTA and 0.5% (w/v) BSA in polypropylene microtiter plates. […]. […] After two h, the membranes were filtered on, filterplates containing GF/C filters (Unifilterplates from Canberra Packard S. A. Zürich, Switzerland). To each well, 50 uL of scintillation cocktail was added (MicroScint 20, Canberra Packard S. A. Zürich, Switzerland) and the filter plates counted in a microplate counter (TopCount, Canberra Packard S. A. Zürich, Switzerland).
All the test compounds were dissolved, diluted and added in DMSO. […] […].

[3] = membranes of CHO cells expressing human recombinant ETA receptors, 8 pM [125I]ET-1, 2 h at 20° C.
[4] = membranes of CHO cells expressing human recombinant ETB receptors, 8 pM [125I]ET-1, 2 h at 20° C.

Compound | IC50 [1, 3] [nM] | IC50 [2, 4] [nM] | IC50 [1] [nM] | IC50 [2] [nM]
5-i-propyl-N-[6-(2-ethanesulfonylamino-ethoxy)-5-(o-methoxyphenoxy)-2-cyclopropyl-pyrimidin-4-yl]-pyridine-2-sulfonamide [Example 38] | 80 | 84 |  | 
5-isopropyl-N-[6-(2-(1-propanesulfonylamino)-ethoxy)-5-(o-methoxyphenoxy)-2-(2-pyridyl)-4-pyrimidinyl]-2-pyridine sulfonamide [Example 72] | 153 | 279 |  | 
COc1ccccc1Oc1c(NS(=O)(=O)c2ccc(C(C)(C)C)cc2)nc(-c2ncccn2)nc1OCCNS(=O)(=O)C(F)(F)F [Example 5, p-tert.-butyl-N-[6-(ethoxy-2-trifluoromethanesulfonamido)-5-(o-methoxyphenoxy)-2-(2-pyrimidinyl)-4-pyrimidinyl]benzene-sulfonamide] |  |  | 5560 | 356
COc1ccccc1Oc1c(NS(=O)(=O)c2ccc(C(C)(C)C)cc2)nc(-c2ncccn2)nc1OCCNS(=O)(=O)c1ccc(C)cc1 [Example 6, p-tert.-butyl-N-[6-(ethoxy-2-p-toluenesulfonamido)-5-(o-methoxyphenoxy)-2-(2-pyrimidinyl)-4-pyrimidinyl]benzene-sulfonamide] | 8300 | 420 |  | 
CCS(=O)(=O)NCCOc1nc(-c2ncccn2)nc(NS(=O)(=O)c2ccc(C(C)(C)C)cc2)c1Oc1ccccc1OC [Example 8, p-tert.-butyl-N-[6-(ethoxy-2-ethanesulfonamido)-5-(o-methoxyphenoxy)-2-(2-pyrimidinyl)-4-pyrimidinyl]benzene-sulfonamide] | 160 | 130 |  | 
COc1ccccc1Oc1c(NS(=O)(=O)c2ccc(C(C)C)cn2)nc(-c2ccncc2)nc1OCCNS(C)(=O)=O [Example 14, 5-i.-propyl-N-[6-(ethoxy-2-methanesulfonamido)-5-(o-methoxyphenoxy)-2-(4-pyridyl)-4-pyrimidinyl]pyridine-2-sulfonamide] |  |  | 518 | 451
CCCCS(=O)(=O)NCCOc1nc(-c2ncccn2)nc(NS(=O)(=O)c2ccc(C(C)(C)C)cc2)c1Oc1ccccc1OC [Example 17, p-tert.-butyl-N-[6-(ethoxy-2-(1-butanesulfonamido))-5-(o-methoxyphenoxy)-2-(2-pyrimidinyl)-4-pyrimidinyl]benzene-sulfonamide] |  |  | 1100 | 117
COc1ccccc1Oc1c(NS(=O)(=O)c2ccc(C(C)C)cn2)nc(-c2cc(OC)c(OC)c(OC)c2)nc1OCCNS(=O)(=O)C(C)C [Example 18] |  |  | 209 | 1050
COc1ccccc1Oc1c(NS(=O)(=O)c2ccc(C(C)C)cn2)nc(C)nc1OCCNS(=O)(=O)c1ccc(C)cc1 [Example 21, 5-i.-propyl-N-[6-(ethoxy-2-p-toluenesulfonamido)-5-(o-methoxyphenoxy)-2-methyl-4-pyrmidinyl]pyridine-2-sulfonamide] |  |  | 881 | 21.8
COc1ccccc1Oc1c(NS(=O)(=O)c2ccc(C(C)C)cn2)nc(C)nc1OCCNS(C)(=O)=O [Example 23, 5-i.-propyl-N-[6-(ethoxy-2-methanesulfonamido)-5-(o-methoxyphenoxy)-2-methyl-4-pyrimidinyl]pyridine-2-sulfonamide] |  |  | 76.1 | 52.7
COc1ccccc1Oc1c(NS(=O)(=O)c2ccc(C(C)(C)C)cc2)ncnc1OCCNS(=O)(=O)c1ccc(Br)cc1 [Example 27, 4-tert.-butyl-N-{6-[2-(4-bromobenzenesulfonyl-amino)-ethoxy]-5-(o-methoxy-phenoxy)-pyrimidin-4-yl}-benzenesulfonamide] |  |  | 3630 | 995
COc1ccccc1Oc1c(NS(=O)(=O)c2ccc(C(C)(C)C)cc2)ncnc1OCCNS(=O)(=O)c1ccc(C)cc1 [Example 28, 4-tert.-butyl-N-{6-[2-(4-methylbenzenesulfonyl-amino)-ethoxy]-5-(o-methoxy-phenoxy)-pydmidin-4-yl}-benzenesulfonamide] |  |  | 3710 | 1040
COc1ccccc1Oc1c(NS(=O)(=O)c2ccc(C(C)(C)C)cc2)ncnc1OCCNS(=O)(=O)c1cccs1 [Example 29, 4-tert.-butyl-N-{6-[2-(2-thiophenesulfonyl-amino)-ethoxy]-5-(o-methoxy-phenoxy)-pydmidin-4-yl}-benzenesulfonamide] |  |  | 1250 | 235
CCCS(=O)(=O)NCCOc1ncnc(NS(=O)(=O)c2ccc(C(C)(C)C)cc2)c1Oc1ccccc1OC [Example 30, 4-tert.-butyl-N-{6-[2-(1-propanesulfonyl-amino)-ethoxy]-5-(o-methoxy-phenoxy)-pyrimidin-4-yl}-benzenesulfonamide] |  |  | 484 | 288
CCS(=O)(=O)NCCOc1ncnc(NS(=O)(=O)c2ccc(C(C)(C)C)cc2)c1Oc1ccccc1OC [Example 31, 4-tert.-butyl-N-{6-[2-(ethanesulfonylamino)-ethoxy]-5-(o-methoxy-phenoxy)-pydmidin-4-yl}-benzenesulfonamide] |  |  | 409 | 735
CCS(=O)(=O)NCCOc1nc(SC)nc(NS(=O)(=O)c2ccc(C(C)(C)C)cc2)c1Oc1ccccc1OC [Example 36f, 4-tert.-butyl-N-[6-(2-ethanesulfonylamino-ethoxy)-5-(o-methoxyphenoxy)-2-methylsulfanyl-pyrimidin-4-yl]-benzenesulfonamide] |  |  | 478 | 1210
CCS(=O)(=O)NCCOc1nc(S(C)(=O)=O)nc(NS(=O)(=O)c2ccc(C(C)(C)C)cc2)c1Oc1ccccc1OC [Example 36g] |  |  | 121 | 93
COc1ccccc1Oc1c(NS(=O)(=O)c2ccc(C(C)(C)C)cc2)nc(SC)nc1OCCNS(=O)(=O)c1ccc(C)cc1 [Example 37, 4-tert.-butyl-N-[6-(2-p-toluenesulfonylamino-ethoxy)-5-(o-methoxyphenoxy)-2-methylsulfanyl-pyrimidin-4-yl]-benzenesulfonamide] |  |  | 5680 | 604
COc1ccccc1Oc1c(NS(=O)(=O)c2ccc(C(C)C)cn2)nc(C2CC2)nc1OCCNS(=O)(=O)c1ccc(C)cc1 [Example 39, 5-i-propyl-N-[6-(2-(4-methylbenzene)-sulfonylamino-ethoxy)-5-(o-methoxyphenoxy)-2-cyclopropyl-pyrimidin-4-yl]-pyridine-2-sulfonamide] | 1050 | 81 |  | 
COc1ccccc1Oc1c(NS(=O)(=O)c2ccc(C(C)(C)C)cc2)nc(C2CC2)nc1OCCNS(=O)(=O)C(C)C [Example 40, 4-tert.-butyl-N-[6-(2-(2-propane)-sulfonylamino-ethoxy)-5-(o-methoxyphenoxy)-2-cyclopropyl-pyrimidin-4-yl]-benzene-sulfonamide] |  |  | 76 | 87
COc1ccccc1Oc1c(NS(=O)(=O)c2ccc(C(C)(C)C)cc2)nc(C2CC2)nc1OCCNS(=O)(=O)c1ccc(C)cc1 [Example 41] | 4900 | 299 |  | 
COc1ccccc1Oc1c(NS(=O)(=O)c2ccc(C(C)C)cn2)nc(N2CCOCC2)nc1OCCNS(=O)(=O)c1cccs1 [Example 42, 5-isopropyl-N-[6-(2-(2-thiophensulfonyl)-amino-ethoxy)-5-(o-methoxyphenoxy)-2-(N-morpholino)-4-pyrimidinyl]-2-pyridine sulfonamide] | 587 | 99 |  | 
COc1ccccc1Oc1c(NS(=O)(=O)c2ccc(C)cn2)nc(N2CCOCC2)nc1OCCNS(=O)(=O)c1cccs1 [Example 58, 5-methyl-N-[6-(2-(thiophene-2-sulfonylamino)-ethoxy)-5-(o-methoxyphenoxy)-2-(N-morpholino)-4-pyrimidinyl]-2-pyridine sulfonamide] |  | 447 |  | 
COc1ccccc1Oc1c(NS(=O)(=O)c2ccc(C(C)(C)C)cc2)nc(-c2ncccn2)nc1OCCCNS(=O)(=O)c1cccs1 [Example 90, 4-tert.-butyl-N-[6-(3-(2-thiophenesulfonylamino)-propoxy)-5-(o-methoxyphenoxy)-2-pyrimidinyl-4-pyrimidinyl]-benzene-sulfonamide] |  |  |  | 4.1

Reference: patent US6596719B1 (Actelio Pharmaceuticals Ltd., priority 1999, dated 2003)
